Test results published in patent publication US20050215614A1, “Substituted indoles and their use as hcv inhibitors” (Rigel Pharmaceuticals, Inc., priority 2003, published 2005).

Each compound was assayed on HCV replicon (assay: HCV Replicon Assay (luciferase, 5-2 Luc replicon cells)). Settings: 5-2 Luc replicon cells (Huh7), 24-48 hours with compound, luciferase counts.
Type: cell-based
Description: Actively dividing 5-2 Luc replicon cells were seeded at the density of 5000-7500 cells/well in the volume of 90 μl/well into 96 well plate(s). The cells were then incubated at 37° C. and 5% CO2 for 24 hours. The 5-2 cells are replicon cells licensed from Ralf Bartenschlager (Germany) and have a self-replicating RNA molecule in the Huh7 cell; the RNA contains HCV non-structural proteins that make the self-replication possible.
Various concentrations of compounds (in the volume of 10 μl) were added into each well 24 hours after seeding the cells. The cells were incubated for another 24-48 hours before luciferase assay.
After incubating the 5-2 Luc replicon cells with the compounds for 24-48 hours, media were aspirated from each well and Bright-Glo (Promega) luciferase assay reagents were added to each well according to the manufacturer′s manual. Briefly, the Bright-Glo reagent was diluted with equal volume of PBS and an aliquote (100 μl) was added to each well. After incubating the plate at room temperature for 5 minutes, luciferase counts were taken using a luminometer.

SMILES	Activity (concentration of inhibitory activity)
Cc1cccc(C)c1C(=O)n1c(C)cc2cc(NC(=O)C3CC3)ccc21 [Compound 16f-4, 5-Cyclopropanecarbonylamino-1-(2′,6′-dimethylbenzoyl)-2-methylindole]	a (“a” indicates inhibitory activity at a concentration of less than 10 micromolar)
Cc1cccc(C)c1C(=O)n1c(C)cc2cc(NC(=O)C3CCC(=O)C3)ccc21 (stereo not shown) [Compound 16f-5, 1-(2′,6′-Dimethylbenzoyl)-5-(3-oxo-1-cyclopentanecarbonyl)amino-2-methylindole]	a (“a” indicates inhibitory activity at a concentration of less than 10 micromolar)
Cc1cc2cc(NC(=O)C3CCCC3)ccc2n1C(=O)c1cc(Cl)nc(Cl)c1 [Compound 16g-1, 5-Cyclopentanecarbonylamino-l-(2′,6′-dichloro-4′-pyridylcarbonyl)-2-methylindole]	a (“a” indicates inhibitory activity at a concentration of less than 10 micromolar)
Cc1cc2cc(NC(=O)C3CC3)ccc2n1C(=O)c1cc(Cl)nc(Cl)c1 [Compound 16g-2, 5-Cyclopropanecarbonylamino-1-(2′,6′-dichloro-4′-pyridylcarbonyl)-2-methylindole]	a (“a” indicates inhibitory activity at a concentration of less than 10 micromolar)
Cc1cc2cc(NC(=O)C3CCC(=O)C3)ccc2n1C(=O)c1cc(Cl)nc(Cl)c1 (stereo not shown) [Compound 16g-3, 1-(2′,6′-Dichloro-4-pyridylcarbonyl)-5-(3-oxo-1-cyclopentanecarbonyl)amino-2-methylindole]	a (“a” indicates inhibitory activity at a concentration of less than 10 micromolar)
Cc1cc2cc(NC(=O)C3CCCC3)ccc2n1C(=O)c1ccccc1Cl [Compound 18, 1-(2′-Chlorobenzoyl)-5-cyclopentanecarbonylamino-2-methylindole]	b (“b” indicates activity is at a concentration greater than 10 micromolar)
COc1ccccc1C(=O)n1c(C)cc2cc(NC(=O)C3CCCC3)ccc21 [Compound 19, 1-(o-Anisoyl)-5-cyclopentanecarbonylamino-2-methylindole]	a (“a” indicates inhibitory activity at a concentration of less than 10 micromolar)
CC(C)(C)c1cc2cc(NC(=O)CCN3CCCCC3)ccc2[nH]1 [Compound 213]	b (“b” indicates activity is at a concentration greater than 10 micromolar)
CC(=O)N1CCC(C(=O)Nc2ccc3[nH]c(C(C)(C)C)cc3c2)CC1 [Compound 214]	b (“b” indicates activity is at a concentration greater than 10 micromolar)
CC(C)(C)c1cc2cc(NC(=O)CCc3c[nH]c4ccccc34)ccc2[nH]1 [Compound 215]	b (“b” indicates activity is at a concentration greater than 10 micromolar)
CC(C)(C)c1cc2cc(NC(=O)Cc3ccc4c(c3)OCO4)ccc2[nH]1 [Compound 216]	b (“b” indicates activity is at a concentration greater than 10 micromolar)
CC(C)(C)c1cc2cc(NC(=O)Cc3cccnc3)ccc2[nH]1 [Compound 217]	b (“b” indicates activity is at a concentration greater than 10 micromolar)
CC(=O)NCCC(=O)Nc1ccc2[nH]c(C(C)(C)C)cc2c1 [Compound 218]	b (“b” indicates activity is at a concentration greater than 10 micromolar)
CC(C)(C)c1cc2cc(NC(=O)CC(c3ccccc3)c3ccccc3)ccc2[nH]1 [Compound 219]	b (“b” indicates activity is at a concentration greater than 10 micromolar)
CC(C)(C)c1cc2cc(NC(=O)Cc3ccc(F)cc3)ccc2[nH]1 [Compound 220]	b (“b” indicates activity is at a concentration greater than 10 micromolar)
CC(C)(C)c1cc2cc(NC(=O)Cc3ccc(-c4ccccc4)cc3)ccc2[nH]1 [Compound 221]	b (“b” indicates activity is at a concentration greater than 10 micromolar)
CN(C)CCCC(=O)Nc1ccc2[nH]c(C(C)(C)C)cc2c1 [Compound 222]	b (“b” indicates activity is at a concentration greater than 10 micromolar)
COc1cscc1C(=O)Nc1ccc2[nH]c(C(C)(C)C)cc2c1 [Compound 223]	a (“a” indicates inhibitory activity at a concentration of less than 10 micromolar)
CCCC(=O)Nc1ccc2[nH]c(C(C)(C)C)cc2c1 [Compound 224]	b (“b” indicates activity is at a concentration greater than 10 micromolar)
CC(C)(C)c1cc2cc(NC(=O)c3ccccc3)ccc2[nH]1 [Compound 225]	b (“b” indicates activity is at a concentration greater than 10 micromolar)
CC(C)(C)c1cc2cc(NC(=O)c3cccc(F)c3)ccc2[nH]1 [Compound 226]	b (“b” indicates activity is at a concentration greater than 10 micromolar)
CC(C)(C)c1cc2cc(NC(=O)c3cccc(Cl)c3)ccc2[nH]1 [Compound 227]	b (“b” indicates activity is at a concentration greater than 10 micromolar)

SMILES	Activity (concentration of inhibitory activity)
CC(C)(C)c1cc2cc(NC(=O)c3cc4ccccc4s3)ccc2[nH]1 [Compound 228]	b (“b” indicates activity is at a concentration greater than 10 micromolar)
CC(C)(C)c1cc2cc(NC(=O)c3sccc3Cl)ccc2[nH]1 [Compound 229]	b (“b” indicates activity is at a concentration greater than 10 micromolar)
CC(C)(C)c1cc2cc(NC(=O)c3ccco3)ccc2[nH]1 [Compound 230]	b (“b” indicates activity is at a concentration greater than 10 micromolar)
Cc1cn(C(=O)c2c(Cl)cccc2Cl)c2ccc(NC(=O)C3(c4ccc(Cl)cc4)CCCC3)cc12 [Compound 231]	b (“b” indicates activity is at a concentration greater than 10 micromolar)
Cc1cn(C(=O)c2c(Cl)cccc2Cl)c2ccc(NC(=O)c3c(Cl)cccc3Cl)cc12 [Compound 232]	b (“b” indicates activity is at a concentration greater than 10 micromolar)
Cc1ccsc1C(=O)Nc1ccc2c(c1)c(C)cn2C(=O)c1c(Cl)cccc1Cl [Compound 233]	b (“b” indicates activity is at a concentration greater than 10 micromolar)
Cc1cn(C(=O)c2c(Cl)cccc2Cl)c2ccc(NC(=O)c3c(F)cccc3F)cc12 [Compound 235]	b (“b” indicates activity is at a concentration greater than 10 micromolar)
Cc1cn(C(=O)c2c(Cl)cccc2Cl)c2ccc(NC(=O)C3CCCCC3)cc12 [Compound 236]	b (“b” indicates activity is at a concentration greater than 10 micromolar)
Cc1cn(C(=O)c2c(Cl)cccc2Cl)c2ccc(NC(=O)/C=C/c3ccccc3)cc12 [Compound 237]	b (“b” indicates activity is at a concentration greater than 10 micromolar)
Cc1c(C)n(C(=O)c2c(Cl)cccc2Cl)c2ccc(NC(=O)/C=C/c3ccccc3)cc12 [Compound 238]	b (“b” indicates activity is at a concentration greater than 10 micromolar)
Cc1cc2cc(NC(=O)C3CCCC3)ccc2n1C(=O)c1ccc(Cl)cc1Cl [Compound 239]	b (“b” indicates activity is at a concentration greater than 10 micromolar)
Cc1cc2cc(NC(=O)C3CCCC3)ccc2n1C(=O)c1cccc(OC(F)(F)F)c1 [Compound 240]	b (“b” indicates activity is at a concentration greater than 10 micromolar)
Cc1cc2cc(NC(=O)C(Cl)Cl)ccc2n1C(=O)c1c(Cl)cccc1Cl [Compound 241]	b (“b” indicates activity is at a concentration greater than 10 micromolar)
Cc1cc2cc(NC(=O)c3cccs3)ccc2n1C(=O)c1c(Cl)cccc1Cl [Compound 242]	b (“b” indicates activity is at a concentration greater than 10 micromolar)
Cc1cc2cc(NC(=O)c3cccc(C(F)(F)F)c3)ccc2n1C(=O)c1c(Cl)cccc1Cl [Compound 243]	b (“b” indicates activity is at a concentration greater than 10 micromolar)
Cc1cc2cc(NC(=O)c3cccc(F)c3)ccc2n1C(=O)c1c(Cl)cccc1Cl [Compound 244]	b (“b” indicates activity is at a concentration greater than 10 micromolar)
Cc1cc2cc(NC(=O)c3nc4ccccc4s3)ccc2n1C(=O)c1c(Cl)cccc1Cl [Compound 245]	b (“b” indicates activity is at a concentration greater than 10 micromolar)
CC(=O)N1CCC(C(=O)Nc2ccc3c(c2)cc(C)n3C(=O)c2c(Cl)cccc2Cl)CC1 [Compound 246]	b (“b” indicates activity is at a concentration greater than 10 micromolar)
O=C(Nc1ccc2c(ccn2C(=O)c2c(Cl)cccc2Cl)c1)C1CCCC1 [Compound 247]	b (“b” indicates activity is at a concentration greater than 10 micromolar)
O=C(Nc1ccc2c(ccn2C(=O)c2c(Cl)cccc2Cl)c1)C(Cl)Cl [Compound 248]	b (“b” indicates activity is at a concentration greater than 10 micromolar)
O=C(Nc1ccc2c(ccn2C(=O)c2c(Cl)cccc2Cl)c1)c1cccc(F)c1 [Compound 249]	b (“b” indicates activity is at a concentration greater than 10 micromolar)
